According to BindingDB's records for doi:10.1021/jm5001979 (Amgen, 2014):

Test: Induction of GK translocation from nucleus to cytoplasm of mouse hepatocytes preincubated for 20 mins followed by glucose challenge measured after 40 mins by Hoechst 33342 staining-based assay

SMILES	EC50 [µM]
Nc1ccc(S(=O)(=O)N2CCN(c3ncc(C(O)(C(F)(F)F)C(F)(F)F)cc3-c3cc[nH]n3)CC2)cn1	11.2
Nc1ccc(S(=O)(=O)N2CCN(c3ncc(C(O)(C(F)(F)F)C(F)(F)F)cc3Br)CC2)cn1	5.37
Nc1ccc(S(=O)(=O)N2CCN(c3ncc(C(O)(C(F)(F)F)C(F)(F)F)cc3C#CC3CC3)CC2)cn1	3.35
Nc1ccc(S(=O)(=O)N2CCN(c3ncc(C(O)(C(F)(F)F)C(F)(F)F)cc3C#CCO)CC2)cn1	0.51
COCC#Cc1cc(C(O)(C(F)(F)F)C(F)(F)F)cnc1N1CCN(S(=O)(=O)c2ccc(N)nc2)CC1	0.254
CC(C)(O)C#Cc1cc(C(O)(C(F)(F)F)C(F)(F)F)cnc1N1CCN(S(=O)(=O)c2ccc(N)nc2)CC1	2.14
Nc1ccc(S(=O)(=O)N2CCN(c3ncc(C(O)(C(F)(F)F)C(F)(F)F)cc3C#CCCO)CC2)cn1	2
Nc1ccc(S(=O)(=O)N2CCN(c3ncc(C(O)(C(F)(F)F)C(F)(F)F)cc3-c3ccc4[nH]ncc4c3)CC2)cn1	2.63
Nc1ccc(S(=O)(=O)N2CCN(c3ncc(C(O)(C(F)(F)F)C(F)(F)F)cc3-c3cc4ccccc4[nH]3)CC2)cn1	1.12
Nc1ccc(S(=O)(=O)N2CCN(c3ncc(C(O)(C(F)(F)F)C(F)(F)F)cc3-c3cc4ccccc4s3)CC2)cn1	2.75
Nc1ccc(S(=O)(=O)N2CCN(c3ccc(C(O)(C(F)(F)F)C(F)(F)F)cn3)CC2)cn1	> 12.5
Nc1ccc(S(=O)(=O)N2CCN(c3ncc(C(O)(C(F)(F)F)C(F)(F)F)cc3Cl)CC2)cn1	6.36
CN1C(=O)Cc2cc(-c3cc(C(O)(C(F)(F)F)C(F)(F)F)cnc3N3CCN(S(=O)(=O)c4ccc(N)nc4)CC3)ccc21	0.234
Nc1ccc(S(=O)(=O)N2CCN(c3ncc(C(O)(C(F)(F)F)C(F)(F)F)cc3-c3ccc4c(c3)CC(=O)N4)CC2)cn1	0.309
Cc1nc2cc(-c3cc(C(O)(C(F)(F)F)C(F)(F)F)cnc3N3CCN(S(=O)(=O)c4ccc(N)nc4)CC3)ccc2o1	0.351
Nc1ccc(S(=O)(=O)N2CCN(c3ncc(C(O)(C(F)(F)F)C(F)(F)F)cc3-c3ccc4ocnc4c3)CC2)cn1	0.416
Nc1ccc(S(=O)(=O)N2CCN(c3ncc(C(O)(C(F)(F)F)C(F)(F)F)cc3-c3ccc4scnc4c3)CC2)cn1	1.15
Nc1ccc(S(=O)(=O)N2CCN(c3ncc(C(O)(C(F)(F)F)C(F)(F)F)cc3-c3ccc4sccc4c3)CC2)cn1	> 12.5
COc1cncc(-c2cc(C(O)(C(F)(F)F)C(F)(F)F)cnc2N2CCN(S(=O)(=O)c3ccc(N)nc3)CC2)c1	1.4
COc1ccc(-c2cc(C(O)(C(F)(F)F)C(F)(F)F)cnc2N2CCN(S(=O)(=O)c3ccc(N)nc3)CC2)cn1	1.4

SMILES	EC50 [µM]
Cc1ccc(-c2cc(C(O)(C(F)(F)F)C(F)(F)F)cnc2N2CCN(S(=O)(=O)c3ccc(N)nc3)CC2)cn1	4.68
Cc1cncc(-c2cc(C(O)(C(F)(F)F)C(F)(F)F)cnc2N2CCN(S(=O)(=O)c3ccc(N)nc3)CC2)c1	0.794
Nc1ccc(S(=O)(=O)N2CCN(c3ncc(C(O)(C(F)(F)F)C(F)(F)F)cc3-c3cncc(F)c3)CC2)cn1	> 12.5
Nc1ccc(S(=O)(=O)N2CCN(c3ncc(C(O)(C(F)(F)F)C(F)(F)F)cc3-c3cnccc3F)CC2)cn1	1.29
Nc1ccc(S(=O)(=O)N2CCN(c3ncc(C(O)(C(F)(F)F)C(F)(F)F)cc3-c3ccncc3)CC2)cn1	0.933
CS(=O)(=O)c1ccc(-c2cc(C(O)(C(F)(F)F)C(F)(F)F)cnc2N2CCN(S(=O)(=O)c3ccc(N)nc3)CC2)cc1	2.95
NC(=O)c1cccc(-c2cc(C(O)(C(F)(F)F)C(F)(F)F)cnc2N2CCN(S(=O)(=O)c3ccc(N)nc3)CC2)c1	0.766
Nc1ccc(S(=O)(=O)N2CCN(c3ncc(C(O)(C(F)(F)F)C(F)(F)F)cc3-c3ccccc3O)CC2)cn1	0.565
Nc1ccc(S(=O)(=O)N2CCN(c3ncc(C(O)(C(F)(F)F)C(F)(F)F)cc3-c3ccc(F)cc3)CC2)cn1	1.38
Nc1ccc(S(=O)(=O)N2CCN(c3ncc(C(O)(C(F)(F)F)C(F)(F)F)cc3-c3cccc(F)c3)CC2)cn1	2.8
Nc1ccc(S(=O)(=O)N2CCN(c3ncc(C(O)(C(F)(F)F)C(F)(F)F)cc3-c3ccccc3F)CC2)cn1	0.803
Nc1ccc(S(=O)(=O)N2CCN(c3ncc(C(O)(C(F)(F)F)C(F)(F)F)cc3-c3ccccc3)CC2)cn1	0.776
Cc1csc(-c2cc(C(O)(C(F)(F)F)C(F)(F)F)cnc2N2CCN(S(=O)(=O)c3ccc(N)nc3)CC2)c1	1.19
Nc1ccc(S(=O)(=O)N2CCN(c3ncc(C(O)(C(F)(F)F)C(F)(F)F)cc3-c3ccoc3)CC2)cn1	1.73
Cc1c(-c2cc(C(O)(C(F)(F)F)C(F)(F)F)cnc2N2CCN(S(=O)(=O)c3ccc(N)nc3)CC2)cnn1C	1.26
CC(C)(C)n1cc(-c2cc(C(O)(C(F)(F)F)C(F)(F)F)cnc2N2CCN(S(=O)(=O)c3ccc(N)nc3)CC2)cn1	2.45
CC(C)n1cc(-c2cc(C(O)(C(F)(F)F)C(F)(F)F)cnc2N2CCN(S(=O)(=O)c3ccc(N)nc3)CC2)cn1	1.08
CCn1cc(-c2cc(C(O)(C(F)(F)F)C(F)(F)F)cnc2N2CCN(S(=O)(=O)c3ccc(N)nc3)CC2)cn1	0.081
Cn1cc(-c2cc(C(O)(C(F)(F)F)C(F)(F)F)cnc2N2CCN(S(=O)(=O)c3ccc(N)nc3)CC2)cn1	0.052
